Holding throughout (format): cell-based
For data set [1], the system named is DU-145 cells. Description: Cell cycle distribution by flow cytometry, DU-145. Particulars: IC50, 24 h; for Cell cycle distribution S: control 15%; for Apoptosis subG1 fraction: control 20%; for Cell cycle distribution G2/M: control 23%; for Cell cycle distribution G1: control 62%. From the text: (§1) In the MCF-7 breast cancer cell line that has been the most widely studied experimental cell system, the typical growth inhibitory response to antiestrogens is decrease in the proportion of cells synthesising DNA (S phase) after antiestrogen treatment. This decrease in S phase coincides with an increase in the proportion of cells in G0/G1 phase. The activity of the androgen receptor (AR) is also regulated by alterations in cell signaling. There has been reported ligand independent activation of AR in prostate cancer cells by different growth factors. As the AR can be activated in the absence of hormone, it appears that the conditions may be more restricted than those observed for ER. Use of physiologic doses of ligand (dihydrotestosterone, DHT) is of importance as the LNCaP cells proliferate only at DHT concentration of 10^−9 M or lower. […] In contrast to proliferation, transactivation of AR specific target genes (e.g. PSA) continues to increase with DHT doses of 10^−10 M and higher. It might be accepted for estrogen or androgen receptors as stronger cytotoxic activities of brassinosteroids 9 or 6 on hormone-sensitive (MCF-7, LNCaP) compared to hormone-insensitive (MDA-MB-468, DU-145) cell lines were found. Therefore we explored the possibility of cell cycle perturbation by BRs in different cancer cell lines. Flow cytometry was used to evaluate the number of cells in the particular phases of the cell cycle, including subG1 peak detection. Control and treated cells were washed twice with cold PBS and centrifuged at 360×g for 10 min at 4° C., and fixed with chilled ethanol (70%; v/v) by low-speeded vortexing. For detection of DNA content analysis, propidium iodide staining was used. The cells were analyzed using a FACSCalibur flow cytometer (BD Biosciences, San Jose, Calif.).
(§2) Flow-cytometric detection of apoptosis. Several studies have declared that the induction of apoptosis may be cell cycle-dependent. Therefore, in our next series of experiments, we tested if brassinosteroids 9 or 6 cause apoptosis of the breast and prostate cancer cells via cell cycle blockage. From this reason we carried out DNA cell cycle analysis by flow cytometry based on detection of endonucleolytic DNA degradation that results in extraction of low molecular weight DNA from the cells. […] The subG1 peak containing apoptotic bodies was however not observed in MCF-7 cells.

For data set [2], the system named is DU-145 cells. The data set can be described thus: TUNEL detection of apoptosis, DU-145. Particulars: IC50 concentration, control 0.0 ± 0.0. On the procedure: TdT-Mediated dUTP nick end labeling (TUNEL) detection of apoptosis index. For detection of apoptotic cells, the TUNEL assay was used. […] After period of treatment, the cells were washed with PBS and fixed on the slides with cold acetone-methanol (1:1, v/v) for 10 min. Apoptosis-induced nuclear DNA fragmentation was detected by terminal deoxynucleotidyl transferase-mediated UTP nick end labeling (TUNEL) technique according to the producer protocol (In Situ Cell Death Detection Kit; Roche Diagnostics, Mannheim, Germany). The cells were then washed three times in PBS and stained with 4′-6-diamidino-2-phenylindole (DAPI; 50 μg/ml; Sigma, St. Louis, Mo., USA) for 10 min in the dark. The coverslips with cells were washed in deionized water and mounted on glass slides, using the hydrophilic medium Mowiol (Calbiochem, Fremont, Calif., USA) in glycerol-PBS (1:3, v/v) for fluorescence. Cells were visualized using fluorescence microscopy and compared with control cells. TUNEL staining achieved to confirm apoptosis in all cell lines.

The subject of another data set is MCF-7 cells. Description: Cell cycle distribution by flow cytometry, MCF-7. Particulars: IC50, 24 h; for Cell cycle distribution S: control 14%; for Apoptosis subG1 fraction: control 17%; for Cell cycle distribution G2/M: control 26%; for Cell cycle distribution G1: control 60%.
Description: as §1, §2
(Flow cytometry measures light scatter and fluorescence of single cells or particles in a stream.)

For data set [3], the system named is MDA-MB-468 (estrogen receptor-α-negative) breast cancer cell line. Description: MTT cytotoxicity test, MDA-MB-468. As to conditions: 24 h, mean ± SD, read-out: IC50 determined by MTT cytotoxicity test. On the procedure:
3-(4,5-Dimethylthiazol-2-yl)-2,5-diphenyltetrazolium bromide (MTT) was from Serva Electrophoresis (Heidelberg, Germany). Monoclonal mouse anti-bromodeoxyuridine (BrdU) intibody was obtained from DakoCytomation (Glostrup, Denmark). Calcein AM was obtained from PAA Laboratories GmbH (Pasching, Austria). […] All other cells were cultured in DMEM medium (Sigma, MO, USA). All used media were supplemented with 10% heat-inactivated fetal bovine serum, 2 mmol/L L-glutamine, 1% penicillin/streptomycin. The cell lines were maintained under standard cell culture conditions at 37° C. and 5% CO2 in a humid environment. Cells were subcultured twice or three times a week using the standard trypsinization procedure (Sigma, USA).
Cell viability in this case was assessed by 3-(4,5-dimethylthiozol-2-yl)-2,5-diphenyltetrazolium bromide (MTT) to determine IC50 concentrations of studied agents as described previously. […] The cells (70% to 80% confluent) were treated with brassinosteroids for 6, 12 and 24 h in cell culture medium. Cells that were used as controls were incubated with the maximum used amount of steroid diluent DMSO only. […] The absorbance was read using an ELISA reader Labsystem Multiscan RC at 570 nm. The viability of treated cells was related to the viability of control cells that represented 100% viability. […]
Background: Formazan colour is commonly taken as a measure of viable cells.

With `CC[C@@H](C(C)C)[C@@H](O)[C@H](O)[C@@H](C)[C@H]1CC[C@H]2[C@@H]3CC(=O)[C@H]4C[C@H](O)[C@H](O)C[C@]4(C)[C@H]3CC[C@]12C` [Brassinosteroid 9, 28-Homocastasterone], in the data set with DU-145 cells [1], the “Cell cycle distribution S” value is 8%, the “Apoptosis subG1 fraction” value stood at 28%, the “Cell cycle distribution G2/M” value was 46% and the “Cell cycle distribution G1” value was 46%. In the data set on DU-145 cells [2] (6 h), the “percentage of TUNEL positive cells” value is given as 6.0 ± 2.0 %. Besides, the “percentage of TUNEL positive cells” value with DU-145 cells [2] (12 h) came to 7.5 ± 4.0 %. Besides, the “percentage of TUNEL positive cells” value in the data set on DU-145 cells [2] (24 h) was 8.0 ± 4.0 %. For the same molecule, in the data set on MCF-7 cells, the “Cell cycle distribution S” value is 11%, the “Apoptosis subG1 fraction” value came to 15%, the “Cell cycle distribution G2/M” value is recorded as 9% and the “Cell cycle distribution G1” value was found to be 80%. The IC50 (commonly the concentration that gives 50% inhibition) in data set [3] turned out to be 65 ± 2.8 µM.

`CC(C)[C@@H](C)[C@@H](O)[C@H](O)[C@@H](C)[C@H]1CC[C@H]2[C@@H]3COC(=O)[C@H]4C[C@H](O)[C@H](O)C[C@]4(C)[C@H]3CC[C@]12C` [Brassinosteroid 6, 24-Epibrassinolide]: in the data set on DU-145 cells [1], the “Cell cycle distribution S” value is listed as 8%, the “Apoptosis subG1 fraction” value is reported as 24%, the “Cell cycle distribution G2/M” value came out at 39% and the “Cell cycle distribution G1” value turned out to be 53%. In the data set with DU-145 cells [2] (6 h), the “percentage of TUNEL positive cells” value is 4.7 ± 2.5 %. The “percentage of TUNEL positive cells” value in the data set on DU-145 cells [2] (12 h) was determined as 5.6 ± 2.0 %. In addition, the “percentage of TUNEL positive cells” value with DU-145 cells [2] (24 h) amounted to 5.1 ± 5.6 %. In addition, in the data set on MCF-7 cells, the “Cell cycle distribution S” value is 7%, the “Apoptosis subG1 fraction” value was found to be 13%, the “Cell cycle distribution G2/M” value worked out at 12% and the “Cell cycle distribution G1” value is reported as 81%. Moreover, the IC50 in data set [3] worked out at 68 ± 2.5 µM.

These data come from patent US20100204460A1, “NATURAL BRASSINOSTEROIDS FOR USE FOR TREATING HYPERPROLIFERATION, TREATING PROLIFERATIVE DISEASES AND REDUCING ADVERSE EFFECTS OF STEROID DYSFUNCTION IN MAMMALS, PHARMACEUTICAL COMPOSITION AND ITS USE” (priority 2007, published 2010).
